{"source": "paper PMC12396409", "about": "“Screening and hit evaluation of a microbial metabolite library against the pathogenic Plasmodium falciparum and Toxoplasma gondii parasites” (International Journal for Parasitology: Drugs and Drug …, 2025)", "key": {"[1]": {"system": "P. falciparum 3D7 parasites", "test": "P. falciparum growth inhibition assay, 2-cycle (120 h treatment), delayed-death screen and dose-response", "type": "cell-based, Plasmodium falciparum", "conditions": "for activity at 2 µg/mL: Plasmodium falciparum, 3D7, 120 h"}, "[2]": {"system": "P. falciparum 3D7 parasites", "test": "P. falciparum growth inhibition assay, 1-cycle (72 h treatment), SYBR DNA staining (library screen at 2 μg/mL and dose-response)", "type": "cell-based, Plasmodium falciparum", "conditions": "for activity at 2 µg/mL: 3D7, 72 h"}, "[3]": {"system": "T. gondii RH strain (RH-Tub-eYFP) tachyzoites", "test": "microbe, parasite or virus in culture", "type": "cell-based, Toxoplasma gondii", "conditions": "72 h; for percent parasite growth at 2 µg/mL: Toxoplasma gondii"}, "[4]": {"conditions": "P. falciparum, 120 h, screen at 2 μg/mL, replicate 1"}, "[5]": {"conditions": "P. falciparum, 120 h, screen at 2 μg/mL, replicate 2"}, "[6]": {"conditions": "P. falciparum, 72 h, screen at 2 μg/mL, replicate 1"}, "[7]": {"conditions": "P. falciparum, 72 h, screen at 2 μg/mL, replicate 2"}, "[8]": {"conditions": "T. gondii, screen at 2 μg/mL, replicate 1"}, "[9]": {"conditions": "T. gondii, screen at 2 μg/mL, replicate 2"}}, "note": "Where two headings read alike, the source gives them in different places."}
{"smiles": "C=C(C)[C@@H]1CC[C@]2(C(=O)OC)CC[C@]3(C)[C@H](CC[C@@H]4[C@@]5(C)CC[C@H](O)C(C)(C)[C@@H]5CC[C@]43C)[C@@H]12", "note": "[Betulinate, Methyl]", "values": [{"measurement": "Pf_120h_%Growth_Rep1", "setting": "[1]; library screen at 2 μg/mL, 120 h, % growth, replicate 1", "value": 150.46, "unit": "%"}, {"measurement": "Pf_120h_%Growth_Rep2", "setting": "[1]; library screen at 2 μg/mL, 120 h, % growth, replicate 2", "value": 92.78, "unit": "%"}, {"measurement": "Pf_72h_%Growth_Rep1", "setting": "[2]; library screen at 2 μg/mL, 72 h, % growth, replicate 1", "value": 96.31, "unit": "%"}, {"measurement": "Pf_72h_%Growth_Rep2", "setting": "[2]; library screen at 2 μg/mL, 72 h, % growth, replicate 2", "value": 86.01, "unit": "%"}, {"measurement": "Tg_72h_%Growth_Rep1", "setting": "[3]; library screen at 2 μg/mL, % growth, replicate 1", "value": 84.95, "unit": "%"}, {"measurement": "Tg_72h_%Growth_Rep2", "setting": "[3]; library screen at 2 μg/mL, % growth, replicate 2", "value": 84.36, "unit": "%"}]}
{"smiles": "CC[C@H]1CCC[C@H](O[C@H]2CC[C@H](N(C)C)[C@@H](C)O2)[C@@H](C)C(=O)C2=C[C@@H]3[C@@H](C=C[C@@H]4C[C@@H](O[C@@H]5O[C@@H](C)[C@H](OC)[C@@H](OC)[C@H]5OC)C[C@@H]34)[C@@H]2CC(=O)O1", "note": "[Spinosyn A]", "values": [{"measurement": "activity at 2 µg/mL", "setting": "[1]; P. falciparum, 120 h, parasite screen 2 μg/mL, % growth, replicate 1, read-out: Pf_120h_%Growth_Rep1", "value": 0.89, "unit": "%"}, {"measurement": "activity at 2 µg/mL", "setting": "[1]; P. falciparum, 120 h, parasite screen 2 μg/mL, % growth, replicate 2, read-out: Pf_120h_%Growth_Rep2", "value": -4.31, "unit": "%"}, {"measurement": "activity at 2 µg/mL", "setting": "[2]; Plasmodium falciparum, P. falciparum, 72 h, parasite screen 2 μg/mL, % growth, replicate 1, read-out: Pf_72h_%Growth_Rep1", "value": 5.81, "unit": "%"}, {"measurement": "activity at 2 µg/mL", "setting": "[2]; Plasmodium falciparum, P. falciparum, 72 h, parasite screen 2 μg/mL, % growth, replicate 2, read-out: Pf_72h_%Growth_Rep2", "value": 3.23, "unit": "%"}, {"measurement": "IC50", "setting": "[2]; Plasmodium falciparum, 3D7, 72 h treatment, mean ± S.D., n ≥ 3, read-out: IC50 (μM), P. falciparum", "value": "> 1", "unit": "µM"}, {"measurement": "percent parasite growth at 2 µg/mL", "setting": "[3]; T. gondii, parasite screen 2 μg/mL, % growth, replicate 1, read-out: Tg_72h_%Growth_Rep1", "value": 56.8, "unit": "%"}, {"measurement": "percent parasite growth at 2 µg/mL", "setting": "[3]; T. gondii, parasite screen 2 μg/mL, % growth, replicate 2, read-out: Tg_72h_%Growth_Rep2", "value": 95.1, "unit": "%"}]}
{"smiles": "COc1cc(-c2cc3c(c(=O)o2)C[C@]2(O)[C@@]4(C)C(=O)C=CC(C)(C)[C@]4(O)CC[C@@]2(C)O3)cc2c1OCO2", "note": "[Territrem A]", "values": [{"measurement": "activity at 2 µg/mL", "setting": "[1]; P. falciparum, 120 h, screen at 2 μg/mL, replicate 1, read-out: Pf_120h_%Growth_Rep1", "value": 6.66, "unit": "%"}, {"measurement": "activity at 2 µg/mL", "setting": "[1]; P. falciparum, 120 h, screen at 2 μg/mL, replicate 2, read-out: Pf_120h_%Growth_Rep2", "value": 112, "unit": "%"}, {"measurement": "Mean", "setting": "[2]; P. falciparum, 72 h, 2 μg/mL, mean of both replicates, growth (% of control)", "value": 49.47}, {"measurement": "activity at 2 µg/mL", "setting": "[2]; Plasmodium falciparum, P. falciparum, 72 h, screen at 2 μg/mL, replicate 1, read-out: Pf_72h_%Growth_Rep1", "value": 14.3, "unit": "%"}, {"measurement": "activity at 2 µg/mL", "setting": "[2]; Plasmodium falciparum, P. falciparum, 72 h, screen at 2 μg/mL, replicate 2, read-out: Pf_72h_%Growth_Rep2", "value": 84.6, "unit": "%"}, {"measurement": "percent parasite growth at 2 µg/mL", "setting": "[3]; T. gondii, screen at 2 μg/mL, replicate 1, read-out: Tg_72h_%Growth_Rep1", "value": 104, "unit": "%"}, {"measurement": "percent parasite growth at 2 µg/mL", "setting": "[3]; T. gondii, screen at 2 μg/mL, replicate 2, read-out: Tg_72h_%Growth_Rep2", "value": 88.7, "unit": "%"}]}
{"smiles": "O=C1N[C@@H](Cc2ccc(O)cc2)C(=O)N2CCC[C@@H]12", "note": "[Cyclo(L-Pro-L-Tyr)]", "values": [{"measurement": "Pf_120h_%Growth_Rep1", "setting": "[1]; [4]", "value": 89.64, "unit": "%"}, {"measurement": "Pf_120h_%Growth_Rep2", "setting": "[1]; [5]", "value": 119.86, "unit": "%"}, {"measurement": "Pf_72h_%Growth_Rep1", "setting": "[2]; [6]", "value": 91.38, "unit": "%"}, {"measurement": "Pf_72h_%Growth_Rep2", "setting": "[2]; [7]", "value": 88.30, "unit": "%"}, {"measurement": "Tg_72h_%Growth_Rep1", "setting": "[3]; [8]", "value": 132.28, "unit": "%"}, {"measurement": "Tg_72h_%Growth_Rep2", "setting": "[3]; [9]", "value": 86.77, "unit": "%"}]}
{"smiles": "C[C@@]12c3ccc4c(c3C(=O)c3occ(c31)[C@@H](O)C[C@H]2O)CCC4=O", "note": "[Demethoxyviridiol]", "values": [{"measurement": "Pf_120h_%Growth_Rep1", "setting": "[1]; [4]", "value": 76.39, "unit": "%"}, {"measurement": "Pf_120h_%Growth_Rep2", "setting": "[1]; [5]", "value": 74.74, "unit": "%"}, {"measurement": "Pf_72h_%Growth_Rep1", "setting": "[2]; [6]", "value": 73.11, "unit": "%"}, {"measurement": "Pf_72h_%Growth_Rep2", "setting": "[2]; [7]", "value": 74.92, "unit": "%"}, {"measurement": "Tg_72h_%Growth_Rep1", "setting": "[3]; [8]", "value": 264.14, "unit": "%"}, {"measurement": "Tg_72h_%Growth_Rep2", "setting": "[3]; [9]", "value": 123.20, "unit": "%"}]}
{"smiles": "O=c1cc(O)c2nccc3c4ccccc4n1c23", "note": "[BIA-H1963]", "values": [{"measurement": "Pf_120h_%Growth_Rep1", "setting": "[1]; P. falciparum 3D7, 120 h, library screen at 2 μg/mL, % growth, replicate 1", "value": 105.89, "unit": "%"}, {"measurement": "Pf_120h_%Growth_Rep2", "setting": "[1]; P. falciparum 3D7, 120 h, library screen at 2 μg/mL, % growth, replicate 2", "value": 107.63, "unit": "%"}, {"measurement": "Pf_72h_%Growth_Rep1", "setting": "[2]; P. falciparum 3D7, 72 h, library screen at 2 μg/mL, % growth, replicate 1", "value": 88.88, "unit": "%"}, {"measurement": "Pf_72h_%Growth_Rep2", "setting": "[2]; P. falciparum 3D7, 72 h, library screen at 2 μg/mL, % growth, replicate 2", "value": 124.49, "unit": "%"}, {"measurement": "Tg_72h_%Growth_Rep1", "setting": "[3]; T. gondii RH, library screen at 2 μg/mL, % growth, replicate 1", "value": 127.63, "unit": "%"}, {"measurement": "Tg_72h_%Growth_Rep2", "setting": "[3]; T. gondii RH, library screen at 2 μg/mL, % growth, replicate 2", "value": 85.33, "unit": "%"}]}
{"smiles": "OCC1=C[C@@H](N[C@H]2C[C@H](CO)[C@@H](O[C@H]3O[C@@H](CO)[C@H](O)[C@@H](O)[C@@H]3O)[C@H](O)[C@H]2O)[C@H](O)[C@@H](O)[C@@H]1O", "note": "[Validamycin A]", "values": [{"measurement": "Pf_120h_%Growth_Rep1", "setting": "[1]; [4]", "value": 167.49, "unit": "%"}, {"measurement": "Pf_120h_%Growth_Rep2", "setting": "[1]; [5]", "value": 74.14, "unit": "%"}, {"measurement": "Pf_72h_%Growth_Rep1", "setting": "[2]; [6]", "value": 75.67, "unit": "%"}, {"measurement": "Pf_72h_%Growth_Rep2", "setting": "[2]; [7]", "value": 70.52, "unit": "%"}, {"measurement": "Tg_72h_%Growth_Rep1", "setting": "[3]; [8]", "value": 87.00, "unit": "%"}, {"measurement": "Tg_72h_%Growth_Rep2", "setting": "[3]; [9]", "value": 98.14, "unit": "%"}]}
